Results: article PMC8822125, “RW-BP100-4D, a Promising Antimicrobial Candidate With Broad-Spectrum Bactericidal Activity” (Frontiers in Microbiology, 2022)
In brackets after ≈: the same amount, converted by molar mass. Where a SMILES comes first, the peptide text is derived from it. Where no end group is shown, it is not given here.

What was measured:
[1] = tested on: various microorganisms; test: MIC/MBC, summary statements over several strains; type: cell-based
[2] = tested on: sheep red blood cells; details: sheep red blood cells in PBS, 37°C, 1 h, OD576, relative to melittin, mean ± SD, three repeats;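 further: hemolysis expressed in % from supernatant absorbance, with PBS-treated cells as 0% baseline and melittin as 100%, peptide mixed 1:1 with an 8% v/v erythrocyte suspension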
[3] = tested on: RAW264.7 cells; details: peptide 150 μg/mL, 24 h, WST-1, mean ± SD, three repeats
[4] = tested on: MAC-T cells; details: peptide 150 μg/mL, 24 h, WST-1, mean ± SD, three repeats
[5] = tested on: Staphylococcus aureus ATCC29213; test: MIC/MBC, broth microdilution; type: cell-based; details: Table 1; broth microdilution CLSI M100-S25, MH broth, 37°C, 18 h, three independent repeats
[6] = tested on: Escherichia coli ATCC25922; details: Table 1; broth microdilution CLSI M100-S25, MH broth, 37°C, 18 h, three independent repeats
[7] = tested on: methicillin-resistant S. aureus ATCC33591; test: Mouse skin infection model; type: in vivo; details: 24 h
Protocol: (§1) Female ICR mice (∼18 g, four weeks old) bought from Yangzhou University were used in this study. They were reared with ad libitum access to drinking water and antibiotic-free feed. The animal experiments were conducted in strict accordance with the Laboratory Animal Welfare and Animal Experimental Ethical Certificate, as issued by Committee on Animal Welfare and Experimental Ethics in Jiangsu Academy of Agricultural Sciences (approval no. JAAS20200516 and JAAS20211208).
(§2) The mouse skin infection model and bacteremia model were established to evaluate the treatment efficacy of RW-BP100-4D on local and system infections, respectively. In each model, ICR female mice were equally allocated into different treatment groups and each group contained six mice. The mouse skin infection model and bacteremia model were constructed according to previously described methods ([Natalia et al., 2019]; [Song et al., 2020]). The mice were challenged with methicillin-resistant S. aureus ATCC33591 (mecA+, MRSA) via spreading on skin lesion (5 × 10^5 CFU/mL, 0.1 mL) or intraperitoneal injection (3.0 × 10^8CFU/mL, 0.5 mL). […] S. aureus isolates were counted by using the Chromagar selective agar (Chromagar, France) supplemented with 8 μg/mL oxacillin.

[8] = tested on: S. enterica ATCC13076; test: Intracellular antibacterial activity in MAC-T cells; type: cell-based, Salmonella enterica; details: 2 h, infected MAC-T cells
Protocol: (§3) The intracellular antibacterial activity of RW-BP100-4D against S. aureus ATCC29213 and S. enterica ATCC13076 were determined as described previously ([John et al., 2019]). MAC-T cells were cultured in a 12-well plate and then infected with S. aureus ATCC29213 or S. enterica ATCC13076 (∼10^5CFU, MOI = 10) for 1 h. The spare bacteria were eliminated by treating with kanamycin (100 μg/mL) for 1 h. After that, kanamycin was removed by washing with PBS for 4 times. Then RW-BP100-4D or RW-BP100 were added to a final concentration of 50 μg/mL, respectively and incubated for 2 h. Meanwhile, kanamycin (50 μg/mL) and PBS were set as the antibiotic treatment group and treatment control group, respectively. Finally, MAC-T cells were treated with 0.1% TritonX-100. The lysates were serially diluted and spread on selective agar plates to enumerate the intracellular live bacteria. Each test was performed with three independent repeats.

[9] = tested on: S. aureus ATCC29213; test: as above; type: cell-based, Staphylococcus aureus; details: 2 h, infected MAC-T cells
Protocol: as §3

[10] = tested on: Escherichia coli and Psudomnas aeruginosa isolates; design: method as in Ferre et al., 2009; details: ref Ferre et al., 2009; cited from earlier work
[11] = tested on: methicillin-resistant S. aureus ATCC33591; test: Mouse bacteremia model; type: in vivo; details: 25 mg/kg intraperitoneal 2 h after infection; 24 h
Protocol: as §1, §2

[12] = tested on: human erythrocytes; details: peptide 4.9 μM; ref Torcato et al., 2013; cited from earlier work
[13] = tested on: HeLa; details: peptide concentration 11 μM; ref Torcato et al., 2013; cited from earlier work
[14] = tested on: S. aureus ATCC29213 mature biofilm; test: Mature biofilm dispersal assay (crystal violet); type: cell-based, Staphylococcus aureus; details: peptide 200 μg/mL, 30 min, 37°C on 24 h biofilm, crystal violet OD590
Protocol: Each test was performed with three independent repeats.

CC[C@@H](C)[C@@H](NC(=O)[C@@H](CCCNC(=N)N)NC(=O)[C@@H](CCCNC(=N)N)NC(=O)[C@@H](Cc1ccccc1)NC(=O)[C@@H](CC(C)C)NC(=O)[C@@H](CCCNC(=N)N)NC(=O)[C@H](N)CCCNC(=N)N)C(=O)N[C@H](CC(C)C)C(=O)N[C@H](CCCNC(=N)N)C(=O)N[C@H](Cc1c[nH]c2ccccc12)C(=O)N[C@H](CC(C)C)C(N)=O [RW-BP100-All-D] (HELM PEPTIDE1{[dR].[dR].[dL].[dF].[dR].[dR].[dI].[dL].[dR].[dW].[dL].[am]}$$$$V2.0)
MIC against S. aureus ATCC29213 and E. coli ATCC25922 (both strains together) ([1]; summary of Table 1): 3 to 12 µg/mL
Hemolytic rate, 50 μg/mL ([2]; 50 μg/mL peptide): 1.94 ± 0.94%
Hemolytic rate, 100 μg/mL ([2]; 100 μg/mL peptide): 2.75 ± 0.23%
Hemolytic rate, 150 μg/mL ([2]; 150 μg/mL peptide): 30.39 ± 2.11%
Hemolytic rate, 300 μg/mL ([2]; 300 μg/mL peptide): 51.40 ± 1.94%
Cell survival rate, RAW264.7 [3]: 23.37 ± 1.58%
Cell survival rate, MAC-T [4]: 14.23 ± 2.37%
MIC Staphylococcus aureus ATCC29213 [5]: 6 µg/mL (≈ 3.79 µM)
MIC Escherichia coli ATCC25922 [6]: 6 µg/mL (≈ 3.79 µM)

CC1(C)S[C@@H]2[C@H](NC(=O)[C@H](N)c3ccccc3)C(=O)N2[C@H]1C(=O)O [ampicillin]
Bacteria load in infected mouse skin, antibiotic control ([7]; ampicillin 1 mg/mL, 100 μL on skin lesion): did not decrease the bacteria load

NC[C@H]1O[C@H](O[C@H]2[C@H](O)[C@@H](O[C@H]3O[C@H](CO)[C@@H](O)[C@H](N)[C@H]3O)[C@H](N)C[C@@H]2N)[C@H](O)[C@@H](O)[C@@H]1O [kanamycin]
Intracellular CFU versus the untreated group, S. enterica ATCC13076 ([8]; kanamycin 50 μg/mL): no significant difference
Intracellular CFU versus the untreated group, S. aureus ATCC29213 ([9]; kanamycin 50 μg/mL): no significant difference

KKLFKKILKYL-NH2 [BP100, short cationic AMP of 11 amino acids (…-NH2), hybrid of cecropin A and melittin]
MIC against Escherichia coli and Psudomnas aeruginosa isolates [10]: 2.5 to 5 µM

RRLFRRILRWL-NH2 [RW-BP100]
MBC values relative to the corresponding MIC values ([1]; over the strains of Table 2): 4–8 fold
Elimination of intracellular S. enterica ATCC13076 ([8]; peptide 50 μg/mL, CFU count): 2.57 log
Bacterial loads in heart, liver and kidney at 25 mg/kg [11]: did not significantly reduce
Hemolytic rate toward human erythrocytes [12]: 50%
Reduction of S. aureus ATCC33591 in infected mouse skin ([7]; peptide 50 μg (1 mg/mL, 50 μL) on skin lesion 2 h after infection, ICR female mice): 3.13 log
Elimination of intracellular S. aureus ATCC29213 ([9]; peptide 50 μg/mL, CFU count): 2.34 log
Cell death rate of HeLa [13]: 73%
Mature biofilm matrix lost compared to the PBS control [14]: 29.4%
